# Laboratory results published in article PMC12102759 (Protein Science : A Publication of the Protein Society, 2025).
# Where two headings read alike, the source gives them in different places.
# Test system: PABPC1 PABC
# Type: binding, human
# Settings: DMS-BM library, bait PABPC1 PABC, row aa = residue at this position; for DMS-derived PSSM value, position T1 / DMS-derived PSSM value, position T3: T = wild type; for DMS-derived PSSM value, position L4 / DMS-derived PSSM value (averaged), position L2: L = wild type; for DMS-derived PSSM value (averaged), position K7: K = wild type
# [1] = prey ATXN2, peptide TLNPNAKEFNPRSFSQ
# [2] = prey ATXN2, TLNPNAKEFNPRSF(averaged) over the two overlapping peptides, S = wild type
# [3] = prey ATXN2, peptide KSTLNPNAKEFNPRSF
# [4] = prey ATXN2, TLNPNAKEFNPRSF(averaged) over the two overlapping peptides, P = wild type
# [5] = prey ATXN2, TLNPNAKEFNPRSF(averaged) over the two overlapping peptides, N = wild type
# [6] = prey ATXN2, peptide KSTLNPNAKEFNPRSF, S = wild type
# [7] = prey ATXN2, peptide TLNPNAKEFNPRSFSQ, N = wild type
# [8] = prey ATXN2, peptide KSTLNPNAKEFNPRSF, F = wild type
# [9] = prey ATXN2, peptide TLNPNAKEFNPRSFSQ, P = wild type
# [10] = prey ATXN2, TLNPNAKEFNPRSF(averaged) over the two overlapping peptides
# [11] = prey ATXN2, peptide TLNPNAKEFNPRSFSQ, F = wild type
# [12] = prey ATXN2, TLNPNAKEFNPRSF(averaged) over the two overlapping peptides, A = wild type
# [13] = prey ATXN2, peptide KSTLNPNAKEFNPRSF, E = wild type
# [14] = prey ATXN2, peptide KSTLNPNAKEFNPRSF, P = wild type
# [15] = prey ATXN2, peptide KSTLNPNAKEFNPRSF, N = wild type
# [16] = prey ATXN2, peptide TLNPNAKEFNPRSFSQ, S = wild type
# [17] = prey ATXN2, TLNPNAKEFNPRSF(averaged) over the two overlapping peptides, R = wild type
substance,measurement,setting,value
TLNPNAKEFNPRSFSQ T1K (KLNPNAKEFNPRSFSQ),"DMS-derived PSSM value, position T1",[1],0.03828
TLNPNAKEFNPRSF(averaged) S13K (TLNPNAKEFNPRKF),"DMS-derived PSSM value (averaged), position S13",[2],0.003966
KSTLNPNAKEFNPRSF T3M (KSMLNPNAKEFNPRSF),"DMS-derived PSSM value, position T3",[3],0.08084
TLNPNAKEFNPRSF(averaged) P11G (TLNPNAKEFNGRSF),"DMS-derived PSSM value (averaged), position P11",[4],0.05139
KSTLNPNAKEFNPRSF L4T (KSTTNPNAKEFNPRSF),"DMS-derived PSSM value, position L4",[3],0
TLNPNAKEFNPRSF(averaged) N3G (TLGPNAKEFNPRSF),"DMS-derived PSSM value (averaged), position N3",[5],0
KSTLNPNAKEFNPRSF L4E (KSTENPNAKEFNPRSF),"DMS-derived PSSM value, position L4",[3],0
KSTLNPNAKEFNPRSF S15V (KSTLNPNAKEFNPRVF),"DMS-derived PSSM value, position S15",[6],0.09383
TLNPNAKEFNPRSFSQ T1G (GLNPNAKEFNPRSFSQ),"DMS-derived PSSM value, position T1",[1],0.1015
TLNPNAKEFNPRSFSQ N3P (TLPPNAKEFNPRSFSQ),"DMS-derived PSSM value, position N3",[7],0
KSTLNPNAKEFNPRSF S15N (KSTLNPNAKEFNPRNF),"DMS-derived PSSM value, position S15",[6],0.1002
KSTLNPNAKEFNPRSF F11R (KSTLNPNAKERNPRSF),"DMS-derived PSSM value, position F11",[8],0
TLNPNAKEFNPRSFSQ P11I (TLNPNAKEFNIRSFSQ),"DMS-derived PSSM value, position P11",[9],0.0006115
TLNPNAKEFNPRSF(averaged) K7V (TLNPNAVEFNPRSF),"DMS-derived PSSM value (averaged), position K7",[10],0.003972
TLNPNAKEFNPRSF(averaged) L2S (TSNPNAKEFNPRSF),"DMS-derived PSSM value (averaged), position L2",[10],0
TLNPNAKEFNPRSFSQ F9Q (TLNPNAKEQNPRSFSQ),"DMS-derived PSSM value, position F9",[11],0
TLNPNAKEFNPRSF(averaged) A6H (TLNPNHKEFNPRSF),"DMS-derived PSSM value (averaged), position A6",[12],0
TLNPNAKEFNPRSF(averaged) L2I (TINPNAKEFNPRSF),"DMS-derived PSSM value (averaged), position L2",[10],0.0008035
KSTLNPNAKEFNPRSF E10M (KSTLNPNAKMFNPRSF),"DMS-derived PSSM value, position E10",[13],0.002857
KSTLNPNAKEFNPRSF P13D (KSTLNPNAKEFNDRSF),"DMS-derived PSSM value, position P13",[14],0.0004732
TLNPNAKEFNPRSFSQ F14N (TLNPNAKEFNPRSNSQ),"DMS-derived PSSM value, position F14",[11],0.0664
TLNPNAKEFNPRSF(averaged) F9S (TLNPNAKESNPRSF),"DMS-derived PSSM value (averaged), position F9","prey ATXN2, TLNPNAKEFNPRSF(averaged) over the two overlapping peptides, F = wild type",0
KSTLNPNAKEFNPRSF P13V (KSTLNPNAKEFNVRSF),"DMS-derived PSSM value, position P13",[14],0.767
KSTLNPNAKEFNPRSF N5M (KSTLMPNAKEFNPRSF),"DMS-derived PSSM value, position N5",[15],0
TLNPNAKEFNPRSFSQ P4D (TLNDNAKEFNPRSFSQ),"DMS-derived PSSM value, position P4",[9],0
KSTLNPNAKEFNPRSF N5K (KSTLKPNAKEFNPRSF),"DMS-derived PSSM value, position N5",[15],0
TLNPNAKEFNPRSFSQ F14G (TLNPNAKEFNPRSGSQ),"DMS-derived PSSM value, position F14",[11],0.005512
TLNPNAKEFNPRSFSQ S13A (TLNPNAKEFNPRAFSQ),"DMS-derived PSSM value, position S13",[16],0.2244
TLNPNAKEFNPRSF(averaged) K7P (TLNPNAPEFNPRSF),"DMS-derived PSSM value (averaged), position K7",[10],0.005399
KSTLNPNAKEFNPRSF F16K (KSTLNPNAKEFNPRSK),"DMS-derived PSSM value, position F16",[8],0.01965
TLNPNAKEFNPRSFSQ N5P (TLNPPAKEFNPRSFSQ),"DMS-derived PSSM value, position N5",[7],8.238e-5
TLNPNAKEFNPRSF(averaged) A6K (TLNPNKKEFNPRSF),"DMS-derived PSSM value (averaged), position A6",[12],0
TLNPNAKEFNPRSF(averaged) R12M (TLNPNAKEFNPMSF),"DMS-derived PSSM value (averaged), position R12",[17],0.02329
TLNPNAKEFNPRSF(averaged) L2Q (TQNPNAKEFNPRSF),"DMS-derived PSSM value (averaged), position L2",[10],0
TLNPNAKEFNPRSFSQ N5Q (TLNPQAKEFNPRSFSQ),"DMS-derived PSSM value, position N5",[7],0.004159
TLNPNAKEFNPRSFSQ A6T (TLNPNTKEFNPRSFSQ),"DMS-derived PSSM value, position A6","prey ATXN2, peptide TLNPNAKEFNPRSFSQ, A = wild type",0.2659
TLNPNAKEFNPRSFSQ R12A (TLNPNAKEFNPASFSQ),"DMS-derived PSSM value, position R12","prey ATXN2, peptide TLNPNAKEFNPRSFSQ, R = wild type",0.004965
TLNPNAKEFNPRSF(averaged) E8R (TLNPNAKRFNPRSF),"DMS-derived PSSM value (averaged), position E8","prey ATXN2, TLNPNAKEFNPRSF(averaged) over the two overlapping peptides, E = wild type",0
KSTLNPNAKEFNPRSF T3E (KSELNPNAKEFNPRSF),"DMS-derived PSSM value, position T3",[3],0.2365
KSTLNPNAKEFNPRSF F16W (KSTLNPNAKEFNPRSW),"DMS-derived PSSM value, position F16",[8],0.01686
TLNPNAKEFNPRSFSQ N5A (TLNPAAKEFNPRSFSQ),"DMS-derived PSSM value, position N5",[7],0.004479
KSTLNPNAKEFNPRSF N7P (KSTLNPPAKEFNPRSF),"DMS-derived PSSM value, position N7",[15],0
KSTLNPNAKEFNPRSF N12K (KSTLNPNAKEFKPRSF),"DMS-derived PSSM value, position N12",[15],0.009595
TLNPNAKEFNPRSFSQ F9S (TLNPNAKESNPRSFSQ),"DMS-derived PSSM value, position F9",[11],0
TLNPNAKEFNPRSFSQ E8W (TLNPNAKWFNPRSFSQ),"DMS-derived PSSM value, position E8","prey ATXN2, peptide TLNPNAKEFNPRSFSQ, E = wild type",0
KSTLNPNAKEFNPRSF E10V (KSTLNPNAKVFNPRSF),"DMS-derived PSSM value, position E10",[13],0.1837
KSTLNPNAKEFNPRSF F11V (KSTLNPNAKEVNPRSF),"DMS-derived PSSM value, position F11",[8],0
TLNPNAKEFNPRSF(averaged) R12V (TLNPNAKEFNPVSF),"DMS-derived PSSM value (averaged), position R12",[17],0.08681
TLNPNAKEFNPRSF(averaged) A6D (TLNPNDKEFNPRSF),"DMS-derived PSSM value (averaged), position A6",[12],0
TLNPNAKEFNPRSF(averaged) P4F (TLNFNAKEFNPRSF),"DMS-derived PSSM value (averaged), position P4",[4],0.005863
TLNPNAKEFNPRSFSQ F14Y (TLNPNAKEFNPRSYSQ),"DMS-derived PSSM value, position F14",[11],0.07249
TLNPNAKEFNPRSFSQ F9W (TLNPNAKEWNPRSFSQ),"DMS-derived PSSM value, position F9",[11],0.6528
KSTLNPNAKEFNPRSF N7G (KSTLNPGAKEFNPRSF),"DMS-derived PSSM value, position N7",[15],0
TLNPNAKEFNPRSFSQ S13Y (TLNPNAKEFNPRYFSQ),"DMS-derived PSSM value, position S13",[16],0.04643
TLNPNAKEFNPRSF(averaged) N10M (TLNPNAKEFMPRSF),"DMS-derived PSSM value (averaged), position N10",[5],0.09167
TLNPNAKEFNPRSF(averaged) L2R (TRNPNAKEFNPRSF),"DMS-derived PSSM value (averaged), position L2",[10],0
TLNPNAKEFNPRSFSQ P11S (TLNPNAKEFNSRSFSQ),"DMS-derived PSSM value, position P11",[9],0.03014
TLNPNAKEFNPRSFSQ F14R (TLNPNAKEFNPRSRSQ),"DMS-derived PSSM value, position F14",[11],0.0002828
TLNPNAKEFNPRSF(averaged) R12H (TLNPNAKEFNPHSF),"DMS-derived PSSM value (averaged), position R12",[17],0.1075
TLNPNAKEFNPRSF(averaged) S13I (TLNPNAKEFNPRIF),"DMS-derived PSSM value (averaged), position S13",[2],0.01901
TLNPNAKEFNPRSFSQ F14L (TLNPNAKEFNPRSLSQ),"DMS-derived PSSM value, position F14",[11],0.08923
KSTLNPNAKEFNPRSF S2L (KLTLNPNAKEFNPRSF),"DMS-derived PSSM value, position S2",[6],0.006151
TLNPNAKEFNPRSFSQ T1A (ALNPNAKEFNPRSFSQ),"DMS-derived PSSM value, position T1",[1],0.03403
TLNPNAKEFNPRSF(averaged) N5A (TLNPAAKEFNPRSF),"DMS-derived PSSM value (averaged), position N5",[5],0.00733
KSTLNPNAKEFNPRSF F16P (KSTLNPNAKEFNPRSP),"DMS-derived PSSM value, position F16",[8],0.0009324
KSTLNPNAKEFNPRSF S15R (KSTLNPNAKEFNPRRF),"DMS-derived PSSM value, position S15",[6],0.007958
